How the values of series [1] were obtained: Moisture sorption isotherms were collected in a VTI SGA-100 Symmetric Vapor Analyzer using approximately 10 mg of sample. The sample was dried at 60° C. until the loss rate of 0.0005 wt %/min was obtained for 10 minutes. The sample was tested at 25° C. (for free base 1 and N-1 HCl salt) or 30° C. (for N-4 HCl salt) and 3 or 4, 5, 15, 25, 35, 45, 50, 65, 75, 85, and 95% RH. Equilibration at each RH was reached when the rate of 0.0003 wt %/min for 35 minutes was achieved or a maximum of 600 minutes.

The conditions of series [2]: slurries in THF, acetonitrile, acetone and DMF/acetone at room temperature.
Source text: Form N-4 of the hydrochloric acid salt of the free base I crystallizes from organic solvents, preferably DMF/acetone.
The nature of series [3]: Stability of the crystals in the solid state. It counts as physicochemical. The note with it: isolated solid.

Read-outs that look alike come from different tables or passages of the source.

For the compound `CCCNC(=O)c1cn2ncnc(Nc3cc(C(=O)NC4CC4)ccc3C)c2c1C.Cl` [Form N-4 salt, hydrochloric acid salt of 4-[[5-[(cyclopropylamino)carbonyl]-2-methylphenyl]amino]-5-methyl-N-propylpyrrolo[2,1-f][1,2,4]triazine-6-carboxamide], the “hygroscopicity / water uptake (moisture-sorption isotherm)” value was “non-hygroscopic” in series [1] (about 25 to about 75% RH at 30° C.) and “negligible water uptake” in series [1] (about 25 to about 75% RH at 30° C., listed as Form N-4 crystals of free base I). In addition, the “relative stability of the crystal form in slurries” value in series [2] (listed as Form N-4) is “stable form at room temperature”.
As to `CCCNC(=O)c1cn2ncnc(Nc3cc(C(=O)NC4CC4)ccc3C)c2c1C.Cl` [Form N-1 hydrochloride salt, hydrochloric acid salt of 4-[[5-[(cyclopropylamino)carbonyl]-2-methylphenyl]amino]-5-methyl-N-propylpyrrolo[2,1-f][1,2,4]triazine-6-carboxamide], the “hygroscopicity / water uptake (moisture-sorption isotherm)” value is on record as “non-hygroscopic” in series [1] (about 25 to about 75% RH at 25° C.) and “negligible water uptake” in series [1] (about 25 to about 75% RH at 25° C., listed as Form N-1 crystals of the hydrochloric acid salt of free base I). In addition, the “stability in the solid state form” value in series [3] is listed as “remain stable in the solid state form”. Also, in series [2] (listed as Form N-1), the “relative stability of the crystal form in slurries” value is on record as “convert to Form N-4”.

For the origin of these results see US20060235020A1, “Process for preparing salts of 4-[[5-[(cyclopropylamino)carbonyl]-2-methylphenyl]amino]-5-methyl-N-propylpyrrolo[2,1-f][1,2,4]triazine-6-carboxamide and novel stable forms produced therein” (priority 2005, published 2006).
